Legend:
Assay in all cases: relative viability (nuclei count vs DMSO), 5 days (fraction); higher = more cells survive
NCI-H1993 = system: NCI-H1993
Summary of the method: (§1)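 Lung cancer cell lines were pin-tool dosed in 1536-well plates on the day after seeding, with either a lone drug or a fixed anchor-drug dose plus five library-drug doses (not always all listed) in √10 steps. Nuclei were counted on 4× images after 5 days. Relative viability is the ratio of treated-well to vehicle-well nuclei counts, with each value a median of duplicate plates.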

PC-3 [JPC-3] = system: PC-3 [JPC-3]
Summary of the method: as §1

H3255 = system: H3255
Summary of the method: as §1

NCI-H3122 = system: NCI-H3122
Summary of the method: as §1

LXF-289 = system: LXF-289
Summary of the method: as §1

NCI-H441 = system: NCI-H441
Summary of the method: as §1

EKVX = system: EKVX
Summary of the method: as §1

NCI-H2170 = system: NCI-H2170
Summary of the method: as §1

NCI-H1650 = system: NCI-H1650
Summary of the method: as §1

EPLC-272H = system: EPLC-272H
Summary of the method: as §1

HOP-62 = system: HOP-62
Summary of the method: as §1

SW 1573 = system: SW 1573
Summary of the method: as §1

CCNC(=O)c1noc(-c2cc(C(C)C)c(O)cc2O)c1-c1ccc(CN2CCOCC2)cc1 [Luminespib] + CC(=O)Nc1cccc(-n2c(=O)n(C3CC3)c(=O)c3c(Nc4ccc(I)cc4F)n(C)c(=O)c(C)c32)c1 [Trametinib] (partner 0.02 µM)
relative viability (NCI-H1993; first compound 0.02 µM): 0.488 | relative viability (NCI-H1993; first compound 0.06325 µM): 0.461 | relative viability (NCI-H1993; first compound 0.2 µM): 0.474 | relative viability (PC-3 [JPC-3]; first compound 0.002 µM): 0.75 | relative viability (PC-3 [JPC-3]; first compound 0.006325 µM): 0.682 | relative viability (PC-3 [JPC-3]; first compound 0.02 µM): 0.517 | relative viability (PC-3 [JPC-3]; first compound 0.06325 µM): 0.505 | relative viability (PC-3 [JPC-3]; first compound 0.2 µM): 0.457 | relative viability (H3255; first compound 0.002 µM): 0.549 | relative viability (H3255; first compound 0.02 µM): 0.405 | relative viability (H3255; first compound 0.06325 µM): 0.386 | relative viability (H3255; first compound 0.2 µM): 0.278 | relative viability (NCI-H3122; first compound 0.002 µM): 0.179 | relative viability (NCI-H3122; first compound 0.006325 µM): 0.27 | relative viability (NCI-H3122; first compound 0.02 µM): 0.141 | relative viability (NCI-H3122; first compound 0.06325 µM): 0.242 | relative viability (NCI-H3122; first compound 0.2 µM): 0.186 | relative viability (LXF-289; first compound 0.002 µM): 0.691 | relative viability (LXF-289; first compound 0.006325 µM): 0.649 | relative viability (LXF-289; first compound 0.02 µM): 0.669 | relative viability (LXF-289; first compound 0.06325 µM): 0.622 | relative viability (LXF-289; first compound 0.2 µM): 0.624 | relative viability (NCI-H441; first compound 0.002 µM): 0.555 | relative viability (NCI-H441; first compound 0.006325 µM): 0.465 | relative viability (NCI-H441; first compound 0.02 µM): 0.271 | relative viability (NCI-H441; first compound 0.06325 µM): 0.0929 | relative viability (NCI-H441; first compound 0.2 µM): 0.11 | relative viability (EKVX; first compound 0.002 µM): 0.391 | relative viability (EKVX; first compound 0.006325 µM): 0.326 | relative viability (EKVX; first compound 0.02 µM): 0.219 | relative viability (EKVX; first compound 0.06325 µM): 0.165 | relative viability (EKVX; first compound 0.2 µM): 0.122 | relative viability (NCI-H2170; first compound 0.002 µM): 0.915 | relative viability (NCI-H2170; first compound 0.006325 µM): 0.932 | relative viability (NCI-H2170; first compound 0.06325 µM): 0.896 | relative viability (NCI-H2170; first compound 0.2 µM): 0.841 | relative viability (NCI-H1650; first compound 0.002 µM): 0.571 | relative viability (NCI-H1650; first compound 0.006325 µM): 0.565 | relative viability (NCI-H1650; first compound 0.02 µM): 0.178 | relative viability (NCI-H1650; first compound 0.06325 µM): 0.1 | relative viability (NCI-H1650; first compound 0.2 µM): 0.0947 | relative viability (EPLC-272H; first compound 0.002 µM): 0.278 | relative viability (EPLC-272H; first compound 0.006325 µM): 0.309 | relative viability (EPLC-272H; first compound 0.02 µM): 0.212 | relative viability (EPLC-272H; first compound 0.06325 µM): 0.238 | relative viability (EPLC-272H; first compound 0.2 µM): 0.0855 | relative viability (HOP-62; first compound 0.002 µM): 0.37 | relative viability (HOP-62; first compound 0.006325 µM): 0.351 | relative viability (HOP-62; first compound 0.02 µM): 0.311 | relative viability (HOP-62; first compound 0.06325 µM): 0.309 | relative viability (HOP-62; first compound 0.2 µM): 0.183 | relative viability (SW 1573; first compound 0.002 µM): 0.604 | relative viability (SW 1573; first compound 0.006325 µM): 0.483 | relative viability (SW 1573; first compound 0.02 µM): 0.198 | relative viability (SW 1573; first compound 0.06325 µM): 0.105 | relative viability (SW 1573; first compound 0.2 µM): 0.096
